Blank lines part the entries; values can stand above or below the compound they belong to.
Columns and labels:
[1] = tested on: IL-6 production; test: LPS-induced IL-6 production model test; format: in vivo, C57BL/6J mice; settings: Mus musculus, 1 h; 10 mg/kg oral, 30 min before LPS 1 mg/kg i.p., serum IL-6 60 min after LPS, mice
Procedure: In order to evaluate the inhibitory activity of inflammatory cytokine production in the present compounds, LPS-induced IL-6 production model evaluation was carried out. The specific method is described below.
An appropriate amount of each compound was weighed, triturated with an agate mortar, and suspended or dissolved in 1% methyl cellulose solution to prepare 1 mg/mL solution.
C57BL/6J mice (male, Purchaser: Charles River Laboratories Japan, Inc.) were weighted, before divided into normal group, control group and each compound-administered group based on the measured body weight using a random number, wherein each group contained 6 samples. The mice were manually held in hands and forced orally administered the 1% methyl cellulose solution (normal and control group) or each administration solution comprising the compound (each compound-administered group) at a dose of 10 mL/kg into stomach using a feeding needle. After 30 minutes from administration of the 1% methyl cellulose solution or each compound administration solution, the mice were manually held in hands and intraperitoneally administered physiological saline (normal group) or LPS solution (control and each compound-administered group) at a dose of 1 mg/kg. After 60 minutes from administration of the LPS solution, whole blood was collected from the abdominal vena cava of each mouse under isoflurane inhalation anesthesia (available from Mylan Seiyaku Ltd.), and the mice were euthanized. The collected blood was allowed to stand at room temperature for one hour, and then centrifuged at 1,500 G for 10 minutes to collect a serum (supernatant). The collected serum was stored in a deep freezer set at −80° C. until the measurement of IL-6 in the serum. The IL-6 concentration in the serum of each mouse was measured by a commercially available kit (available from R&D systems, Cat No. M6000B), according to the protocol attached thereto.
The IL-6 production inhibition rate (%) was calculated by the following equation using Microsoft EXCEL 2010. IL-6 production inhibition rate (%)=100−{(average value of IL-6 concentration in serum of each compound-administered group)−(average value of IL-6 concentration in serum of normal group))/(average value of IL-6 concentration in serum of control group)−(average value of IL-6 concentration in serum of normal group)}×100

[2] = Pharmacokinetics test in rats (oral administration); format: in vivo, LEW/CrlCrlj rats
Procedure: In order to evaluate the transition of plasma concentration of the present compound after oral administration, pharmacokinetics was evaluated in rats. The specific method is described below.
Appropriate amounts of Example 71 and various salts thereof were weighed, triturated with an agate mortar, and suspended or dissolved in 1% methyl cellulose solution to 2 mg/mL (as a converted quantity of Example 71 considering the correction of purify).
LEW/CrlCrlj rats (male, purchased form Charles River Laboratories Japan, Inc.) were weighted, a random number based on the measured body weight was used to avoid difference in average body weight among groups, and the rats were divided into groups, wherein each groups contained 4 rats. The rats were manually held in hands and forced orally administered each administration solution comprising the compound at a dose of 5 mL/kg into stomach using a feeding needle. At 0.5, 1, 3, 6 and 24 hours after the administration of each administration solution comprising the compound, the rats were manually held in hands, and blood was collected from the jugular vein or subclavian vein using a heparin-treated injection syringe. The obtained blood was centrifuged at 1,500 G for 10 minutes, and plasma was collected as an actual sample. In addition, plasma was collected from rats before the administration of the compound in the same manner, which was used as blank plasma. The collected actual samples and blank plasma were stored in a freezer set at −70° C. until the measurement of the compound concentration. To 20 μL of each actual sample were added 20 μL of acetonitrile (available from Kishida Chemical Co., Ltd., Cat No. 140-00401), 100 μL of MilliQ water and 20 μL of the internal standard solution to prepare an analytical sample. In addition, to 20 μL of blank plasma were added 20 μL or 40 μL of acetonitrile (available from Kishida Chemical Co., Ltd., Cat No. 140-00401) and 100 μL of MilliQ water (a blank sample or a zero sample, respectively). A standard sample for a calibration curve was prepared by mixing 20 μL of blank plasma, 20 μL of the standard solution for a calibration curve in each concentration, 100 μL of MilliQ water and 20 μL of the internal standard solution. Whole amount of the prepared each sample was applied to a diatomaceous earth column for liquid-liquid extraction (available from Biotage, Cat No. 820-0200), tert-butyl methyl ether (available from Kanto Chemical Co., Inc., Cat No. 04418-5B) was added and eluted by natural dropping, and the obtained eluate was concentrated to dryness under a nitrogen stream. The residue was dissolved in the re-dissolved solution and 10 μL of each sample was injected into the LC/MS/MS apparatus.
LC/MS/MS analysis was carried out under the following conditions. Analytical column: Hydrosphere C18, 3 μm, 2.0 mm I.D.×50 mm (from YMC, Cat No. HS12S03-0502WT)
Flow rate: 0.3 mL/min. Column temperature: 50° C. Peak area calculation, peak area ratio calculation, preparation of calibration and quantification used in calculating the concentration for the LC/MS/MS analysis were carried out by Analyst ver.1.6.2 (available from AB Sciex). In addition, by using the obtained concentration measurement results, these were analyzed by Non-compartmental model of a pharmacokinetics analysis program WinNonlin ver.6.1 (Pharsight Corporation), and the pharmacokinetics parameter was calculated.

[3] = male, LEW/CrlCrlj, rat, plasma, 10 mg/kg, oral 2 mg/mL solution at 5 mL/kg, mean n = 4

Structure (SMILES): Cc1sc2c(c1C)C(c1ccc(Cl)cc1)=NN(Cc1ccccn1)c1nnc(C)n1-2 [Example 5, 4-(4-chlorophenyl)-2,3,9-trimethyl-6-(pyridin-2-ylmethyl)-6H-thieno[2,3-e][1,2,4]triazolo[3,4-c][1,2,4]triazepine]
inhibition in vivo at 10 mg/kg [1]: 77.5%

Structure (SMILES): Cc1sc2c(c1C)C(c1ccc(Cl)cc1)=NN(Cc1cccnc1F)c1nnc(C)n1-2 [Example 25, 4-(4-chlorophenyl)-6-((2-fluoropyridin-3-yl)methyl)-2,3,9-trimethyl-6H-thieno[2,3-e][1,2,4]triazolo[3,4-c][1,2,4]triazepine]
inhibition in vivo at 10 mg/kg [1]: 26.3%

Structure (SMILES): Cc1sc2c(c1C)C(c1ccccc1)=NN(Cc1ccccn1)c1nnc(C)n1-2 [Example 31, 2,3,9-trimethyl-4-phenyl-6-(pyridin-2-ylmethyl)-6H-thieno[2,3-e][1,2,4]triazolo[3,4-c][1,2,4]triazepine]
inhibition in vivo at 10 mg/kg [1]: 57.5%

Structure (SMILES): Cc1sc2c(c1C)C(c1ccc(Cl)cc1)=NN(Cc1cccnc1Cl)c1nnc(C)n1-2 [Example 38, 4-(4-chlorophenyl)-6-((2-chloropyridin-3-yl)methyl)-2,3,9-trimethyl-6H-thieno[2,3-e][1,2,4]triazolo[3,4-c][1,2,4]triazepine]
inhibition in vivo at 10 mg/kg [1]: 20.2%

concentration at 0.5 h ([2]; male, LEW/CrlCrlj, rat, 10 mg/kg, plasma, 0.5 h after oral 2 mg/mL solution at 5 mL/kg, mean n = 4, read-out: Concentration (ng/mL), sampling time 0.5 h): 22.1 ng/mL | concentration at 1 h ([2]; male, LEW/CrlCrlj, rat, 10 mg/kg, plasma, 1 h after oral 2 mg/mL solution at 5 mL/kg, mean n = 4, read-out: Concentration (ng/mL), sampling time 1 h): 14.8 ng/mL | concentration at 3 h ([2]; male, LEW/CrlCrlj, rat, 10 mg/kg, plasma, 3 h after oral 2 mg/mL solution at 5 mL/kg, mean n = 4, read-out: Concentration (ng/mL), sampling time 3 h): 4.23 ng/mL | concentration at 6 h ([2]; male, LEW/CrlCrlj, rat, 10 mg/kg, plasma, 6 h after oral 2 mg/mL solution at 5 mL/kg, mean n = 4, read-out: Concentration (ng/mL), sampling time 6 h): 1.46 ng/mL | AUC(0-inf) [2, 3]: 61.8 ng·h/mL | AUC(0-t) [2, 3]: 42.3 ng·h/mL | half-life [2, 3]: 1.31 h | Cmax ([2]; male, LEW/CrlCrlj, rat, plasma, 10 mg/kg, oral 2 mg/mL solution at 5 mL/kg, mean n = 4, read-out: Cmax): 22.4 ng/mL | MRT ([2]; male, LEW/CrlCrlj, rat, plasma, 10 mg/kg, oral 2 mg/mL solution at 5 mL/kg, mean n = 4, read-out: MRT): 1.82 h | Tmax ([2]; male, LEW/CrlCrlj, rat, plasma, 10 mg/kg, oral 2 mg/mL solution at 5 mL/kg, mean n = 4, read-out: Tmax): 0.75 h | Kel ([2]; oral 2 mg/mL solution at 5 mL/kg, mean n = 4): 0.55 h⁻¹
Structure (SMILES): CC(=O)Nc1ccc(C2=NN(Cc3cccnc3)c3nnc(C)n3-c3sc(C)c(C)c32)cc1 [Example 71, N-(4-(2,3,9-trimethyl-6-(pyridin-3-ylmethyl)-6H-thieno[2,3-e][1,2,4]triazolo[3,4-c][1,2,4]triazepin-4-yl)phenyl)acetamide]
inhibition in vivo at 10 mg/kg [1]: 79%
